Legend:
E-cadherin = conditions: skin substitute EpiDermFT; cited from earlier work
collagenase = conditions: cited from earlier work
Aquaporin 3 = conditions: skin substitute EpiDermFT; cited from earlier work
elastase = conditions: relative to retinol; cited from earlier work
rat brain homogenates = conditions: cited from earlier work
Epiderm human skin model = conditions: pH 7.4
Method: The irritant potential of the extract was evaluated in vitro, by the colorimetric method (MTT), using the reconstructed epidermis model "EpiDerm® (MatTek Corporation).
In order to determine the safety of birch extract in cosmetics, a method was used to determine the irritant potential using the Epiderm human skin model, which contains a multilayered differentiated epidermis. In this method, the exposure time at which a 50% reduction in the number of viable cells (ET50) occurs is assessed. This number is assessed by measuring the reduction of MTT - 3-(4,5-dimethylthiaz-2-yl)-2-5-diphenyltetrazolium bromide). Formazan, which is blue-violet in colour, is formed as a result of mitochondrial metabolism. Formazan formation allows assessment of the number of cells that have been damaged. A chemical is classified as an irritant if the cell survival rate relative to a negative sample (containing neutral solvent) is below 50%.
The test consisted of applying an appropriate amount of a solution of the test compound to the surface of the epidermis model. Birch extract solutions of 0.25 per cent and 0.5 per cent by weight were prepared, corresponding to the content of this active ingredient in cosmetic preparations. […]

Row | Structure (SMILES) | CDH1 gene expression (E-cadherin) | inhibits collagenase, effectiveness (collagenase) | AQP3 gene expression (Aquaporin 3) | inhibits elastase, compared with retinol (elastase) | lipid peroxidation (rat brain homogenates) | Relative cell viability [%] (Epiderm human skin model)
1 | C=C[C@@](C)(/C=C/c1ccc(O)cc1)CCC=C(C)C [Bakuchiol] | 21.6 | 50% | 4.3 | almost nine times more strongly than retinol | – | –
2 | C=C[C@@](C)(/C=C/c1ccc(OC)cc1)CCC=C(C)C [O-methylbakuchiol] | – | – | – | – | inhibited | –
3 | CC1=C(/C=C/C(C)=C/C=C/C(C)=C/CO)C(C)(C)CCC1 [Retinol] | 9.4 | not affected at all | 3.5 | – | – | –
4 | CCCCCCCCCCCCOS(=O)(=O)[O-].[Na+] [SLS] | – | – | – | – | – | 6.03%
